The source of these data is US20190328721A1, “METHOD OF ACTIVATING DENDRITIC CELLS” (KOREA INSTITUTE OF SCIENCE AND TECHNOLOGY, priority 2018, published 2019).

For assay [1], the system named is bone marrow-derived macrophages (BMDMs). As to the kind of experiment: Phagocytosis of cancer cells by bone marrow-derived macrophages in vitro. The format is cell-based, mice. The protocol: (§1) Specifically, the present inventors prepared bone marrow-derived macrophages (BMDMs) differentiated from excised bone marrow of mice using M-CSF and bone marrow-derived dendritic cells (BMDCs) differentiated from excised bone marrow using Flt3L. The degree of differentiation was confirmed by flow cytometry analysis using antibodies specifically binding to F4/80 (BMDM marker) and CD11c (BMDC marker), respectively (FIGS. 2A and 2B).
(§2) The prepared BMDMs and BMDCs were stained with 1 μM CellTracker Deep Red (Thermo Fisher Scientific, USA). 30 μM of Y27632 (Abcam, USA) or 30 μM of fasudil (Selleck Chemicals, USA) was added to each of 15×10^4 cells/ml of the stained macrophages and dendritic cells and incubated at 37° C. for 1 hour. As a negative control, macrophages or dendritic cells that were not incubated with Y27632 and fasudil were used.
(§3) Bone marrow-derived macrophages or dendritic cells prepared in RPMI medium and cancer cell lines stained with 1 μM CellTracker CMFDA (Thermo Fisher Scientific, USA) were co-cultured at about 37° C. for about 2 hours. CT26.CL25, a colon cancer cell line, and B16F10-OVA, a melanoma cell line, were used as the cancer cells.
(§4) Thereafter, the percentage of cancer cells was measured by flow cytometry, and the phagocytosis ratio of macrophages and dendritic cells against cancer cells was calculated. The results are shown in FIGS. 2C to 2F (left: cancer cell line CT26.CL25, right: cancer cell line B16F10-OVA).
(§5) In order to more accurately analyze the phagocytosis of macrophages and dendritic cells against cancer cells according to the treatment of the ROCK inhibitor, the present inventors analyzed phagocytosis of the BMDMs and BMDCs against CT26.CL25 colon cancer cells using the pHrodo-SE dye, which changes in fluorescence depending on pH. When […], the pH of the cancer cells decreased and became red. When treated with Y27632 as described above for the above-mentioned phagocytosis response, the phagocytic activities of both the BMDMs and BMDCs against cancer cells were improved.
(§6) The present inventors performed an experiment to confirm how long the phagocytosis of BMDMs and BMDCs against cancer cells due to the ROCK inhibitor is maintained. Specifically, BMDMs and BMDCs were pretreated with Y27632 for 1 hour, then Y27632 was removed, and immediately after 30 minutes, 1 hour, 2 hours, or 4 hours, the phagocytosis against CT26.CL25 and B16F10-Ova was measured using a flow cytometer. The other experimental conditions were the same as in Example 1-1.
In order to confirm whether the ROCK inhibitor increases phagocytosis against cancer cells by acting on phagocytic cells (BMDMs or BMDCs) themselves, Y27632 was used to pretreat the phagocytic cells or cancer cells for 1 hour, and the phagocytic activity was analyzed using the same procedure described in Example 1-1.
The present inventors identified through the above-mentioned results that Y27632 promotes phagocytic cells against cancer cells by inhibiting ROCK in the phagocytic cells. In order to elucidate a more detailed mechanism related to the increase of phagocytic activity by ROCK inhibitors, the present inventors analyzed phagocytosis of the phagocytic cells against cancer cells using blebbistatin (Sigma-Aldrich, USA), which can inhibit the movement of myosin light chain, which exist downstream of ROCK signaling pathway, according to the method described in Example 1-1.
Bone marrow-derived macrophages (BMDMs) treated with 30 μM of fasudil were co-cultured with B16F10-Ova malignant melanoma cells for 1 hour and the phagocytic activity of the BMDMs against apoptotic cancer cells was analyzed by flow cytometry analysis. In order to induce immunogenic apoptosis, 2.5 μM mitoxantrone (Sigma-Aldrich, USA) was administered with B16F10-Ova cells stained with CellTracker Deep Red (Thermo Fisher Scientific, USA) for 4 hours. […]

Assay [2] relates to bone marrow-derived dendritic cells (BMDCs). As to the kind of experiment: Phagocytosis of cancer cells by bone marrow-derived dendritic cells in vitro. It is filed as cell-based, mice. The procedure:
as §1, §2, §3, §4, §5, §6
In order to confirm whether the ROCK inhibitor increases phagocytosis against cancer cells by acting on phagocytic cells (BMDMs or BMDCs) themselves, Y27632 was used to pretreat the phagocytic cells or cancer cells for 1 hour, and the phagocytic activity was analyzed using the same procedure described in Example 1-1. […]
Phagocytic activity of bone marrow-derived dendritic cells (BMDCs) differentiated from bone marrow cells against cancer cells was analyzed by treating the BMDCs with ROCK inhibitor Y27632 (30 μM) for 1 hour and then co-cultivating with CT26.CL25 colon cancer cells pretreated with 25 μM of doxorubicin for 24 hours or B16F10-Ova malignant melanoma cells treated with 30 μM of Y27632 for 1 hour and then treated with 2.5 μM doxorubicin (Sigma-Aldrich, USA) for 24 hours by pHrodo SE (Thermo Fisher Scientific, USA) staining (BMDC:Dox-treated B16F10-Ova=1:1). As shown in FIGS. 16A to 16D, it was confirmed that the phagocytic activity of BMDCs induced by doxorubicin were increased in the Y27632-treated group compared to the control group (FIGS. 16A to 16D). […]

In a further assay the test system is OT-1 T cells. The assay is described as follows: Proliferation of injected CFSE-stained OT-1 T cells in B16F10-Ova-bearing mice. The format is in vivo. Particulars: 3 days after injection. The procedure: Specifically, Y27632 was administered to the B16F10-Ova-bearing cancer model mice according to the administration schedule described in Example 2-1, and OT-1 T cells stained with CFSE (carboxyfluorescein succinimidyl ester, Thermo Fisher Scientific, Inc., USA) were injected into the cancer model mice and the degree of proliferation of T cells was confirmed 3 days later (FIG. 14A).

The subject of assay [3] is bone marrow-derived dendritic cells (BMDC). As to the kind of experiment: Cross presentation of H-2Kb-Ova by BMDCs in vitro. The format is cell-based, mice. The settings on record: Y27632 30 μM, 1 hour on BMDCs; cancer cells doxorubicin treated or untreated. The protocol:
Furthermore, the inventors investigated whether the cross presentation of dendritic cells was promoted by the combination treatment of doxorubicin and Y27632. To this end, the present inventors used 30 μM of Y27632 to pretreat bone marrow-derived dendritic cells (BMDC) stained with CellTracker CMFDA (Thermo Fisher Scientific, USA) for 1 hour, followed by treatment with doxorubicin treated B16F10-Ova cells or doxorubicin untreated B16F10-Ova cells. After the co-culture, floating cancer cells were removed by withdrawing supernatant. Cross presentation activity, which is one of functions of dendritic cells, was analyzed via flow cytometry analysis using an antibody capable of detect a cancer antigen (H-2K^b-Ova) capable of activating T cells, through flow cytometry analysis using an antibody (H-2K^b monoclonal antibody, Invitrogen, USA).

Where [4] appears, read: 30 μM, 1 hour, co-culture with CT26.CL25 or B16F10-OVA about 2 hours.
Setting [5] is: cancer cells pretreated for 1 hour.
The mark [6] stands for this setting: phagocytic cells pretreated for 1 hour.
[7] abbreviates: pretreated 1 hour, then removed, CT26.CL25 and B16F10-Ova.

The structures appear in SMILES notation. Where only a bound is given, the exact number is not on record here.

As to `C[C@@H](N)[C@H]1CC[C@H](C(=O)Nc2ccncc2)CC1` [Y27632], the “phagocytic ability of macrophages against cancer cells” value in assay [1] (setting [4]) is listed as “significantly increased”. For the same compound, the “phagocytic activity of BMDMs against cancer cells (pHrodo-SE dye)” value in assay [1] (CT26.CL25 colon cancer cells) was “improved”. Moreover, in assay [1] (setting [5]), the “phagocytosis by BMDMs against cancer cells, cancer cells pre-treated” value is “not increased”. For the same compound, the “phagocytosis against cancer cells, BMDMs pretreated” value in assay [1] (setting [6]) is given as “increased”. The “time for which BMDMs maintain phagocytosis after the pretreatment” value in assay [1] (setting [7]) was not above 1 h. Further, in assay [2] (30 μM, 1 hour, CT26.CL25 (25 μM doxorubicin) or B16F10-Ova (2.5 μM doxorubicin), 24 hours), the “phagocytic activity of BMDCs against doxorubicin-treated cancer cells” value is “increased”. In addition, the “phagocytic ability of dendritic cells against cancer cells” value in assay [2] (setting [4]) is “significantly increased”. In assay [2] (CT26.CL25 colon cancer cells), the “phagocytic activity of BMDCs against cancer cells (pHrodo-SE dye)” value is given as “improved”. Besides, the “phagocytosis by BMDCs against cancer cells, cancer cells pre-treated” value in assay [2] (setting [5]) is “not increased”. Also, the “phagocytosis against cancer cells, BMDCs pretreated” value in assay [2] (setting [6]) is reported as “increased”. Further, the “time for which BMDCs maintain phagocytosis after the pretreatment” value in assay [2] (setting [7]) was not above 1 h. For the same compound, the “proliferation of OT-1 T cells” value in the assay on OT-1 T cells is “significantly increased”. Further, the “cross presentation (H-2Kb-Ova) of BMDCs co-cultured with B16F10-Ova cells” value in assay [3] is recorded as “increased the cross-presentation”.
